# Measurements: patent publication US20130324543A1, “REVERSAL OF HIGH BREAST CANCER RISK IN MAMMALS EXPOSED TO ESTROGENIC CHEMICALS IN UTERO BY ADULT EXPOSURE TO HDAC AND DNMT INHIBITORS” (Georgetown University, priority 2012, published 2013)
# Entries after “also recorded” stand apart in the source; their conditions may differ.
# Legend:
# [1] = Puberty onset (vaginal opening) of female mice exposed in utero; format: in vivo, C57BL/6 mice
# Experimental: To assess possible changes in sexual maturation due to in utero ECD exposures during embryogenesis, the day of puberty onset was recorded, as defined based on vaginal opening (VO) in female mice. The mice were examined once a day starting on PND 21. In sexually mature mice, the stage of estrus cycle was determined based on the cytology of their vaginal smear (sampled by pipetting 20 μl PBS in and out of vagina onto a slide) as judged under the microscope. Stage of estrus cycle was determined for each mouse before necropsy and sample collection.
# Dnmt1 = assay: Dnmt mRNA expression (qRT-PCR) in mammary glands of F1-F3 rat offspring; format: in vivo, Sprague-Dawley rats; conditions: for levels of Dnmt1 mRNA in mammary gland: PND50
# Text: Total mammary RNA (n=3-6/group) was used as a template for random primed cDNA synthesis (TaqMan MultiScribe Reverse Transcriptase and RT-PCR Reagents, AppliedBiosystems, Roche, N.J., USA). cDNA samples were then used as templates for quantitative RT PCR analysis with previously described specific primers for the target gene, rat Dnmt1 (124) using QuantiTect SYBR green PCR kit (Qiagen Inc., Valencia, Calif.). Each sample was normalized to the reference gene 18S rRNA (27). Two hundred ng of total RNA per sample (n=3-6) was used as a template for random primed cDNA synthesis with a recombinant Moloney murine leukemia virus reverse transcriptase (TaqMan MultiScribe Reverse Transcriptase and RT-PCR Reagents, AppliedBiosystems, Roche, N.J., USA), according to manufacturer's instructions. An RT enzyme-minus control reaction was also included. The cDNA samples were then used as templates for quantitative real time PCR analysis with previously described specific primers for the target gene, rat Dnmt1(29) using QuantiTect SYBR green PCR kit (Qiagen Inc., Valencia, Calif.) and an ABI Prism 7900 Sequence Detection System. Each sample was run in triplicate, and the qPCR run was repeated twice. Absolute gene expression levels were determined using Applied Biosystems' SDS2.3 software and the standard curve method. Concentration of each sample was normalized to the reference gene 18S rRNA (30), and averages of the three runs are shown. Differences in Dnmt1 mRNA expression levels were tested by two-way ANOVA (after log-transformation), followed by Holm-Sidak multicomparison procedure.
# CYP1B1 = CYP1B1 expression (qRT-PCR) in mammary glands of F1-F3 rat offspring; format: in vivo, Sprague Dawley rats
# Experimental: Mammary gland tissue obtained from 50-day-old F1-F3 generation offspring (n=5-6 per group per generation) were used. 1 μg of total RNA per sample was used as a template for random primed cDNA synthesis. The cDNA samples were used as templates for qRT-PCR analysis with specific primers for the target gene, rat CYP1B1 using QuantiTect SYBR green PCR kit (Qiagen Inc., Valencia, Calif.) and an ABI Prism 7900 Sequence Detection System. Each sample was run in triplicate. Absolute gene expression levels were determined using Applied Biosystems' SDS2.3 software and the standard curve method. Concentration of each sample was normalized to the reference gene 18S rRNA.
# mammary glands = assay: Cell proliferation (Ki-67 immunohistochemistry) in PND50 mammary glands; format: in vivo, Sprague Dawley rats
# Experimental: To determine whether the increase in DNA adduct formation may reflect increased cell proliferation, expression of Ki-67, a marker of cell proliferation, was assessed on PND50 mammary glands using immunohistochemistry. The ki-67 status of each sample was evaluated according to a modified version of the scoring system proposed by Allred et al. The total score for each sample was calculated as the sum of the estimated proportion of positive-staining cells ([…]) plus the estimated intensity of positive-staining cells (0-4).
# DNA adducts = assay: MDA-DNA adduct levels in mammary glands of F1-F3 rat offspring; format: in vivo, Sprague Dawley rats; conditions: F1-F3 generation offspring
# mammary gland [2] = assay: Mammary gland morphology of in utero exposed mice (whole mounts); format: in vivo, C57BL/6 mice; conditions: female mice, PND 27
# Experimental: One of the two #4 abdominal mammary glands was dissected and fixed in Carnoy's fixative and processed into whole mounts as previously described (8). The other #4 abdominal gland was snap frozen in liquid nitrogen and stored in −80° C. for future analysis. One of the two thoracic #2-3 mammary glands was fixed in neutral buffered 10% formalin, embedded in paraffin and processed for histology using routine methods, and the other was snap frozen in liquid nitrogen, also stored in −80° C. for future analysis. Uterus was dissected, and one horn with the ovary and vagina attached was fixed in 10% formalin, embedded in paraffin and processed for histology, and the other horn and one ovary were frozen in liquid nitrogen and stored in −80° C.
# To assess possible changes in mammary gland morphology, whole amounts of the 4th abdominal glands obtained on PND 27 were processed as previously described (4, 72). The total number of terminal end buds (TEBs) was counted. Identification of TEBs was based on the guidelines established by Russo and Russo (64). The total area (in pixels) of epithelium of the peripubertal (PND 27) mammary glands was analyzed by using ImageJ software (available through NIH web site) on digitized pictures of mammary whole mounts with ducts manually intensified black against white background (shown as an insert in FIG. 16). Ductal elongation (mammary epithelial outgrowth) on PND 50 was measured as the growth in millimeters from the end of the lymph node to the end of the epithelial tree. All the analyses were done blindly using an Olympus dissecting microscope.
# mammary gland [3] = assay: Number of terminal end buds (TEBs) in mammary whole mounts of F1-F3 rat offspring; format: in vivo, Sprague-Dawley rats; conditions: mean±s.e.m.
# Experimental: Whole mounts (n=5-6 per group and age) were examined under the microscope and evaluated as described before (28) to assess the number of terminal end buds (TEBs). Results were analyzed by t-test (or Mann-Whitney Rank Sum test) or one-ANOVA (when comparing outcross groups in F2 generation). Where appropriate, between groups comparisons after ANOVA were done by Holm-Sidak multi-comparison procedure.
# mammary tumors = assay: Acquired tamoxifen (TAM) resistance of mammary tumors in in utero exposed rats; format: in vivo; conditions: 14-week follow-up, 7% in the control group
# [4] = Con x EE2 outcross (F2 generation)
# [5] = EE2 x Con outcross (F2 generation)
# [6] = maternal EE2 diet 0.1 ppm, F1 generation
# [7] = maternal EE2 diet, F2 generation
# [8] = maternal EE2 diet, F3 generation
smiles,measurement,setting,value
"C#C[C@]1(O)CC[C@H]2[C@@H]3CCc4cc(O)ccc4[C@H]3CC[C@@]21C [EE2, ethinyl estradiol]",puberty onset / vaginal opening,"[1]; female offspring, in utero exposure",significantly earlier puberty onset; also recorded: significantly accelerated
same,puberty onset,"[1]; female pups, instead of PND 32",27 PND
same,levels of Dnmt1 mRNA in mammary gland,Dnmt1; F1 generation,increased
same,levels of Dnmt1 mRNA in mammary gland,Dnmt1; F2 and F3 generation offspring,this increase persisted
same,DNMT3a or 3b expression in the mammary glands,"Dnmt1; in utero exposed rats, not shown",Neither DNMT3a or 3b were altered
same,CYP1B1 expression in normal mammary glands,CYP1B1; F1-F3 generation offspring,up-regulated
same,expression levels of CYP1B1,"CYP1B1; F1 and F2 generations, vs control or HF offspring",significantly higher
same,CYP1B1 expression levels,"CYP1B1; F3 generation, vs controls",higher than in the controls
same,cell proliferation by ki-67,mammary glands; F1 generation,non-significantly increased
same,cell proliferation by ki-67,"mammary glands; F2 generation, compared to the controls",significantly lower
same,DNA adduct formation by measuring MDA levels,DNA adducts,mimicked the findings of changes in CYP1B1 expression
same,total epithelial area of the glands,mammary gland [2],significantly increased
same,Number of TEBs PND 21,mammary gland [3]; [4],19.4 ± 1.5
same,Number of TEBs PND 50,mammary gland [3]; [4],11.0 ± 1.2
same,Number of TEBs PND 21,mammary gland [3]; [5],32.7 ± 3.6
same,Number of TEBs PND 50,mammary gland [3]; [5],22.8 ± 1.6
same,Number of TEBs PND 21,mammary gland [3]; [6],25.3 ± 1.3
same,Number of TEBs PND 50,mammary gland [3]; [6],32.5 ± 2.3
same,Number of TEBs PND 21,mammary gland [3]; [7],30.8 ± 1.9
same,Number of TEBs PND 50,mammary gland [3]; [7],22.2 ± 3.8
same,Number of TEBs PND 21,mammary gland [3]; [8],33.0 ± 2.1
same,Number of TEBs PND 50,mammary gland [3]; [8],28.7 ± 3.4
same,acquired resistance to TAM,mammary tumors,50%
